These results are taken from patent publication US20170210723A1, “MOLECULES HAVING PESTICIDAL UTILITY, AND INTERMEDIATES, COMPOSITIONS, AND PROCESSES, RELATED THERETO” (priority 2016, published 2017).

Format in all cases: in vivo
In data set [1] the test system is Green Peach Aphid (Myzus persicae). The data set is described as follows: Bioassays on Green Peach Aphid, foliar spray on cabbage seedlings. The following applies: 72 h, 200 ppm spray on cabbage seedlings, three days, Abbott corrected % control, read-out: GPA % Control (or Mortality) rating. The procedure: Cabbage seedlings grown in 3-inch pots, with 2-3 small (3-5 cm) true leaves, were used as test substrate. The seedlings were infested with 20-50 GPA (wingless adult and nymph stages) one day prior to chemical application. Four pots with individual seedlings were used for each treatment. Test molecules (2 mg) were dissolved in 2 mL of acetone/methanol (1:1) solvent, forming stock solutions of 1000 ppm test molecule. The stock solutions were diluted 5× with 0.025% Tween 20 in water to obtain the solution at 200 ppm test molecule. A hand-held aspirator-type sprayer was used for spraying a solution to both sides of […] leaves until runoff. Reference plants (solvent check) were sprayed with the diluent only containing 20% by volume of acetone/methanol (1:1) solvent. Treated plants were held in a holding room for three days at approximately 25° C. and ambient relative humidity (RH) prior to grading. Evaluation was conducted by counting the number of live aphids per plant under a microscope. Percent Control was measured by using Abbott's correction formula (W. S. Abbott, “A Method of Computing the Effectiveness of an Insecticide” J. Econ. Entomol. 18 (1925), pp. 265-267) as follows.
Corrected % Control=100*(X−Y)/X • where • X=No. of live aphids on solvent check plants and • Y=No. of live aphids on treated plants

The test system of data set [2] is Cabbage Looper (Trichoplusia ni). The experiment in a line: Bioassays on CL, 128-well diet tray assay. The conditions noted are these: Trichoplusia ni; for mortality at 50 µg/cm2: 168 h, 50 μg/cm^2 on artificial diet, second instar larvae, five to seven days, read-out: CL % Control (or Mortality) rating. The method in brief: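 Test molecule at 50 μg/cm^2 applied to the artificial diet surface (acetone-water) and dried; one to five second-instar T. ni larvae per well, eight wells per treatment, held at 25° C., 14:10 light-dark for five to seven days. Percent mortality averaged over wells.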

The subject of data set [3] is Beet Armyworm (Spodoptera exigua). The data set is described as follows: Bioassays on BAW, 128-well diet tray assay. The conditions noted are these: Spodoptera exigua; for mortality at 50 µg/cm2: 168 h, 50 μg/cm^2 on artificial diet, second instar larvae, five to seven days, read-out: BAW % Control (or Mortality) rating.
For data set [4], the system named is Yellow Fever Mosquito (Aedes aegypti). The data set is described as follows: Bioassays on Yellow Fever Mosquito larvae, 96-well plate. The conditions noted are these: from 4000 ppm DMSO master plate, about 1 day-old larvae, 3 days. The method in brief:
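Aedes aegypti larvae about 1 day old, in water with liver powder, exposed in 96-well plates to compounds from a 4000 ppm DMSO master solution diluted in 90:10 water:acetone. Plates covered and held at room temperature for 3 days, then each well scored for mortality; 6 replicate plates.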

Molecules are shown by their SMILES.

Broadly, the mortality is the share of the test organisms that died.

For the compound `C[C@H](CSCC(F)(F)F)NC(=O)c1ccc(/C=C/C(c2cc(Cl)c(F)c(Cl)c2)C(F)(F)F)cc1C(F)(F)F` (stereo partly drawn) [F35, 4-((E)-3-(3,5-Dichloro-4-fluorophenyl)-4,4,4-trifluorobut-1-en-1-yl)-N—((R)-1-((2,2,2-trifluoroethyl)thio)propan-2-yl)-2-(trifluoromethyl)benzamide], the mortality at 200 ppm in data set [1] lay within 0 to 80%. Moreover, the mortality at 50 µg/cm2 in data set [2] and in data set [3] was 50 to 100% throughout. Moreover, the “YFM % Control (or Mortality) rating” value in data set [4] is listed as “A (80-100)”.
On to `C[C@H](CSCC(F)(F)F)NC(=O)c1ccc(/C=C/C(c2cc(Cl)c(Cl)c(Cl)c2)C(F)(F)F)cc1Br` (stereo partly drawn) [F38, 2-Bromo-4-((E)-4,4,4-trifluoro-3-(3,4,5-trichlorophenyl)but-1-en-1-yl)-N-((R)-1-((2,2,2-trifluoroethyl)thio)propan-2-yl)benzamide], for which the mortality at 200 ppm in data set [1] was 0 to 80%. The mortality at 50 µg/cm2 in data set [2] and in data set [3] was 50 to 100% in each case. The “YFM % Control (or Mortality) rating” value in data set [4] is on record as “A (80-100)”.
On to `C[C@H](C[S+]([O-])CC(F)(F)F)NC(=O)c1ccc(/C=C/C(c2cc(Cl)c(F)c(Cl)c2)C(F)(F)F)cc1Br` (stereo partly drawn) [F49, 2-Bromo-4-((E)-3-(3,5-dichloro-4-fluorophenyl)-4,4,4-trifluorobut-1-en-1-yl)-N-((2R)-1-((2,2,2-trifluoroethyl)sulfinyl)propan-2-yl)benzamide], for which the mortality at 200 ppm in data set [1] worked out at 0%. In addition, the mortality at 50 µg/cm2 in data set [2] and in data set [3] was 50 to 100% throughout. For the same compound, the “YFM % Control (or Mortality) rating” value in data set [4] is given as “A (80-100)”.
Turning to `C[C@H](CSCC(F)(F)F)NC(=O)c1ccc(/C=C/C(c2cc(Br)cc(Br)c2)C(F)(F)F)cc1C(F)(F)F` (stereo partly drawn) [F56, 4-((E)-3-(3,5-Dibromophenyl)-4,4,4-trifluorobut-1-en-1-yl)-N—((R)-1-((2,2,2-trifluoroethyl)thio)propan-2-yl)-2-(trifluoromethyl)benzamide], the mortality at 200 ppm in data set [1] amounted to 0%. For the same compound, the mortality at 50 µg/cm2 in data set [2] and in data set [3] was 50 to 100% each time. Further, the “YFM % Control (or Mortality) rating” value in data set [4] is listed as “A (80-100)”.
Regarding `C[C@H](CS(=O)(=O)CC(F)(F)F)NC(=O)c1ccc(/C=C/C(c2cc(Cl)c(Cl)c(Cl)c2)C(F)(F)F)cc1Cl` (stereo partly drawn) [F58, 2-Chloro-4-((E)-4,4,4-trifluoro-3-(3,4,5-trichlorophenyl)but-1-en-1-yl)-N—((R)-1-((2,2,2-trifluoroethyl)sulfonyl)propan-2-yl)benzamide], the mortality at 200 ppm in data set [1] is 0%. Besides, the mortality at 50 µg/cm2 in data set [2] and in data set [3] was 50 to 100% each time. The mortality at 0.05 µg/cm2 was 100% in data set [2] (0.05 μg/cm^2, read-out: CL Percent control (or mortality)) and 100% in data set [3] (0.05 μg/cm^2, read-out: BAW Percent control (or mortality)). Further, the mortality at 0.5 µg/cm2 in data set [2] (0.5 μg/cm^2, read-out: CL Percent control (or mortality)) worked out at 100%; in data set [3] (0.5 μg/cm^2, read-out: BAW Percent control (or mortality)), 100%. Further, the mortality at 5 µg/cm2 in data set [2] (5 μg/cm^2, read-out: CL Percent control (or mortality)) was found to be 100%; in data set [3] (5 μg/cm^2, read-out: BAW Percent control (or mortality)) it was 100%. Also, the “YFM % Control (or Mortality) rating” value in data set [4] is on record as “A (80-100)”.
Regarding `CCS(=O)(=O)C[C@@H](C)NC(=O)c1ccc(/C=C/C(c2cc(Cl)c(Cl)c(Cl)c2)C(F)(F)F)cc1C(F)(F)F` (stereo partly drawn) [F68, N—((R)-1-(Ethylsulfonyl)propan-2-yl)-4-((E)-4,4,4-trifluoro-3-(3,4,5-trichlorophenyl)but-1-en-1-yl)-2-(trifluoromethyl)benzamide], in data set [1], the mortality at 200 ppm was 0 to 80%. Also, the mortality at 50 µg/cm2 in data set [2] and in data set [3] was 50 to 100% throughout. Besides, the “YFM % Control (or Mortality) rating” value in data set [4] was “A (80-100)”.
Consider `CCC[S+]([O-])C[C@@H](C)NC(=O)c1ccc(/C=C/C(c2cc(Cl)c(Cl)c(Cl)c2)C(F)(F)F)cc1C(F)(F)F` (stereo partly drawn) [F111, N-((2R)-1-(Propylsulfinyl)propan-2-yl)-4-((E)-4,4,4-trifluoro-3-(3,4,5-trichlorophenyl)but-1-en-1-yl)-2-(trifluoromethyl)benzamide], for which the mortality at 200 ppm in data set [1] lay within 0 to 80%. Moreover, the mortality at 50 µg/cm2 in data set [2] and in data set [3] was 50 to 100% throughout. In addition, the “YFM % Control (or Mortality) rating” value in data set [4] is recorded as “A (80-100)”.
Regarding `C[C@H](CSCCF)NC(=O)c1ccc(/C=C/C(c2cc(Cl)c(Cl)c(Cl)c2)C(C)(F)F)cc1C(F)(F)F` (stereo partly drawn) [F119, 4-((E)-4,4-Difluoro-3-(3,4,5-trichlorophenyl)pent-1-en-1-yl)-N—((R)-1-((2-fluoroethyl)thio)propan-2-yl)-2-(trifluoromethyl)benzamide], the mortality at 200 ppm in data set [1] was 0 to 80%. Also, the mortality at 50 µg/cm2 in data set [2] and in data set [3] was 50 to 100% each time. Further, in data set [4], the “YFM % Control (or Mortality) rating” value is reported as “A (80-100)”.
